For this test, the target named is 4-aminobutyrate aminotransferase, mitochondrial (Rattus norvegicus, UniProt P50554). The experiment in a line: Inhibition of Rattus norvegicus (rat) brain gamma-amino butyrate aminotransferase using gamma-amino butyrate as substrate assessed as decrease in NADPH generation after 30 min by spectrophotometric analysis.
Sequence of 4-aminobutyrate aminotransferase, mitochondrial (P50554 whole entry): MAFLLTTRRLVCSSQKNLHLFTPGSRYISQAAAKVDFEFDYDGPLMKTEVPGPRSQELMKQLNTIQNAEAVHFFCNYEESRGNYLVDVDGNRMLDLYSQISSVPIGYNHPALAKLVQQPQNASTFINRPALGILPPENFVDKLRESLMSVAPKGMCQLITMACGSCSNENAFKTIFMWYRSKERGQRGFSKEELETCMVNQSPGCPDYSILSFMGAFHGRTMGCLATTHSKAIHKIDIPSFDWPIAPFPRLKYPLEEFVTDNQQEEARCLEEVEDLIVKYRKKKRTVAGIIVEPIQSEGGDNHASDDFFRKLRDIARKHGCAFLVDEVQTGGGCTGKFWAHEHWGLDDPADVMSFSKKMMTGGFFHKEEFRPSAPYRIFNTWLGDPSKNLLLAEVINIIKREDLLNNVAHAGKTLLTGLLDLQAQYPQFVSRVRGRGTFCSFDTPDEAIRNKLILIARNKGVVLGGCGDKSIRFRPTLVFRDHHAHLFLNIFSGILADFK
In general, IC50 refers to the concentration that inhibits the measured activity by half. In the case of `CC12CCC(C1)C(C)(C)/C2=N\CCCC(=O)O` (stereo not drawn), the IC50 worked out at 10000 nM.
In the case of `CC1=CC(=O)C=C/C1=N\CCCC(=O)O`, the 50% inhibitory concentration (IC50) amounted to 30100 nM.
Turning to `C/C(=N/NC(=O)c1cccc(N)c1)c1cccc(Cl)c1`, the IC50 was found to be 320 nM.
With `O=C(O)c1cccc(N=C2c3ccccc3C(=O)c3ccccc32)c1`, the half-maximal inhibitory concentration (IC50) amounted to 4960 nM.
For the compound `O=C(O)CCC/N=C1/C(=O)c2cccc3cccc1c23`, the half-maximal inhibitory concentration (IC50) worked out at 16800 nM.
Regarding `C=C(C)C1CC=C(C)/C(=N/CCCC(=O)O)C1` (stereo not drawn), the IC50 came out at 23500 nM.
Then `NCCCC(=O)NN=C1c2ccccc2C(=O)c2ccccc21`, with 140 nM.
For `NCCCC(=O)N/N=C/c1ccccc1I` the value was 200 nM; for `CC1CCC(C(C)C)/C(=N/CCCC(=O)O)C1` (stereo not drawn), 20800 nM.
Take `Nc1cccc(C(=O)N/N=C2/c3ccccc3C(=O)c3ccc(O)c(O)c32)c1`: the IC50 is 240 nM.
As for `CC1=C(C)C(=Nc2cccc(C(=O)O)c2)C(C)=C(C)C1=O`, the half-inhibitory concentration (IC50) was determined as 6540 nM.
On to `NCCCC(=O)N/N=C1\CCCc2ccccc21`, for which the IC50 stood at 280 nM.
As for `NCCCC(=O)N/N=C(\c1ccccc1)c1ccc(Br)cc1`, the IC50 came to 560 nM.
On to `Nc1cccc(C(=O)N/N=C(/c2ccccc2)c2ccc(Cl)cc2)c1`, for which the half-inhibitory concentration (IC50) came out at 370 nM.
`NCCCC(=O)N/N=C(/C(=O)c1ccccc1)c1ccccc1`: the IC50 worked out at 300 nM.
`NCCCC(=O)N/N=C1\CCc2ccccc2C1`: the IC50 was determined as 130 nM.
For `Nc1cccc(C(=O)N/N=C2/c3ccccc3C(=O)c3ccc(Cl)cc32)c1` the value was 460 nM; for `O=C(O)CCC/N=C1/C(=O)c2ccccc2-c2ccccc21`, 15500 nM; for `O=C(O)CCCN=C(/C=C/c1ccccc1)/C=C/c1ccccc1`, 9950 nM.
As for `C/C(=N\CCCC(=O)O)c1ccc2ccccc2c1`, the IC50 stood at 44100 nM.
Then `C/C(=N/NC(=O)CCCN)c1cccc(Cl)c1`, with 91 nM.
As to `NCCCC(=O)N/N=C/c1cccc(I)c1`, the half-maximal inhibitory concentration (IC50) came out at 150 nM.
As to `Cc1ccc2c(c1)/C(=N\NC(=O)CCCN)c1ccccc1C2=O`, the IC50 was found to be 110 nM.
As for `CC1=C/C(=N/CCCC(=O)O)CC(C)(C)C1`, the 50% inhibitory concentration (IC50) was determined as 25900 nM.
As to `O=C(O)c1cccc(/N=C2\C(=O)c3ccccc3-c3ccccc32)c1`, the IC50 was found to be 2780 nM.
As to `CCc1ccc2c(c1)/C(=N/c1cccc(C(=O)O)c1)c1ccccc1C2=O`, the IC50 came out at 1210 nM.
Turning to `CC1CCCC/C1=N\CCCC(=O)O` (stereo not drawn), the IC50 is 20800 nM.
With `C/C(=N/NC(=O)CCCN)c1ccccc1Br`, the IC50 turned out to be 73 nM.

These data come from ChEMBL document CHEMBL3045067, “-Amino butyric acid analogs as novel potent GABA-AT inhibitors: molecular docking, synthesis, and biological evaluation” (Med Chem Res, 2013).
